{"source": "patent US9255100B2", "about": "(BAYER INTELLECTUAL PROPERTY GMBH, priority 2010, dated 2016)"}
{"molecular_target": "T1, N-terminally GST-tagged human full length recombinant Mps-1 kinase (Homo sapiens, UniProt P33981)", "T1 construct": "N-terminally GST-tagged human full length recombinant Mps-1 kinase; purchased Invitrogen, Karslruhe, Germany PV4071", "T1 sequence (P33981 1-857)": "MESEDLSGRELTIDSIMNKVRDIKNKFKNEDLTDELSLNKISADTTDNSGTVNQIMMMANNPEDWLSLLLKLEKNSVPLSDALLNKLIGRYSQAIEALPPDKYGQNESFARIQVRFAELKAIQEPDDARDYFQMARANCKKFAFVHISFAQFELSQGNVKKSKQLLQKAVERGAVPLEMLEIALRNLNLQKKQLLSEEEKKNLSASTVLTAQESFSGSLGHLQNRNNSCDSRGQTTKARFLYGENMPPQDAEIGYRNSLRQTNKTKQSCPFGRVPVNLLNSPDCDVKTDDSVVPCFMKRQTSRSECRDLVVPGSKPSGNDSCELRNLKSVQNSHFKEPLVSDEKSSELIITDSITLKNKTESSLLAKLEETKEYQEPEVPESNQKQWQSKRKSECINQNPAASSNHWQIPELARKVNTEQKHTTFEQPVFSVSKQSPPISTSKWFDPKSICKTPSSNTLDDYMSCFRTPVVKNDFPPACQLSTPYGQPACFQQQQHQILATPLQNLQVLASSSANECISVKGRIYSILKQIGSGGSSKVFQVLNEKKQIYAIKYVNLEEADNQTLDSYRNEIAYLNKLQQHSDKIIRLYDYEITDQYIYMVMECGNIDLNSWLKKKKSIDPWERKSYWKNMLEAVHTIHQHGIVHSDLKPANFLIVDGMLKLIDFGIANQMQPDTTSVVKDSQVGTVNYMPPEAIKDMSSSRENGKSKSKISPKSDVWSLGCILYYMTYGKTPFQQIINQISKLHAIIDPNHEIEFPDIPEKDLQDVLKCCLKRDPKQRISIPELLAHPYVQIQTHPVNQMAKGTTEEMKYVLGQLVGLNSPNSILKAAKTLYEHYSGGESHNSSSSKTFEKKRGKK", "test": "Mps-1 kinase assay (TR-FRET)", "type": "biochemical", "conditions": "Mps1 IC50 [nM], 10 μM ATP, 1 μM peptide substrate, 60 min at 22° C.", "description": "The human kinase Mps-1 phosphorylates a biotinylated substrate peptide. Detection of the phosphorylated product is achieved by time-resolved fluorescence resonance energy transfer (TR-FRET) from Europium-labelled anti-phospho-Serine/Threonine antibody as donor to streptavidin labelled with cross-linked allophycocyanin (SA-XLent) as acceptor. Compounds are tested for their inhibition of the kinase activity.\nN-terminally GST-tagged human full length recombinant Mps-1 kinase (purchased from Invitrogen, Karslruhe, Germany, cat. no PV4071) was used. As substrate for the kinase reaction a biotinylated peptide of the amino-acid sequence […] (C-terminus in amide form, purchased from Biosynthan GmbH, Berlin) was used.\nThe concentration of Mps-1 in the assay was adjusted to the activity of the enzyme lot and was chosen appropriate to have the assay in the linear range, typical enzyme concentrations were in the range of about 1 nM (final conc. in the 5 μl assay volume).\nThe resulting mixture was incubated 1 h at 22° C. to allow the binding of the phosphorylated peptide to the anti-phospho(Ser/Thr)-Europium-antibody. Subsequently the amount of phosphorylated substrate was evaluated by measurement of the resonance energy transfer from the Europium-labelled anti-phospho(Ser/Thr) antibody to the Streptavidin-XLent.", "units": {"IC50": "nM"}}
{"smiles": "Cc1cc(-c2cnc3c(NCC(C)(C)O)cc(Oc4ccn[nH]4)nn23)ccc1C(=O)NC1CC1", "note": "[Example 414, N-cyclopropyl-4-{8-[(2-hydroxy-2-methylpropyl)amino]-6-(1H-pyrazol-5-yloxy)imidazo[1,2-b]pyridazin-3-yl}-2-methylbenzamide]", "IC50": 6.7}
{"smiles": "Cc1cc(-c2cnc3c(NCC(C)(C)O)cc(Oc4ccccc4)nn23)ccc1C(=O)NC1CC1", "note": "[Example 76, N-cyclopropyl-4-{8-[(2-hydroxy-2-methylpropyl)amino]-6-phenoxyimidazo[1,2-b]pyridazin-3-yl}-2-methylbenzamide]", "IC50": "< 0.7"}
{"smiles": "CNC(=O)c1ccc(-c2cnc3c(NCC4CCOCC4)cc(Oc4ccc(OC)cc4)nn23)cc1C", "note": "[Example 570, 4-{6-(4-methoxyphenoxy)-8-[(tetrahydro-2H-pyran-4-ylmethyl)amino]imidazo[1,2-b]pyridazin-3-yl}-N,2-dimethylbenzamide]", "IC50": "< 1"}
{"smiles": "CNC(=O)c1ccc(-c2cnc3c(NCC(C)C)cc(Cl)nn23)cc1Cl", "note": "[Example 180, 2-Chloro-4-{6-chloro-8-[(2-methylpropyl)amino]imidazo[1,2-b]pyridazin-3-yl}-N-methylbenzamide]", "IC50": 327}
{"smiles": "Cc1cc(-c2cnc3c(NCC(C)(C)O)cc(Sc4ccccc4)nn23)ccc1C(=O)NC1CC1", "note": "[Example 214, N-cyclopropyl-4-{8-[(2-hydroxy-2-methylpropyl)amino]-6-(phenylsulfanyl)imidazo[1,2-b]pyridazin-3-yl}-2-methylbenzamide]", "IC50": "< 1"}
{"smiles": "Cc1cc(-c2cnc3c(NCC(C)C)cc(Cl)nn23)ccc1C(=O)NC1CC1", "note": "[Example 99, 4-{6-Chloro-8-[(2-methylpropyl)amino]imidazo[1,2-b]pyridazin-3-yl}-N-cyclopropyl-2-methylbenzamide]", "IC50": 29.5}
{"smiles": "Cc1cc(-c2cnc3c(NCCC(F)(F)F)cc(Oc4ccc(F)nc4)nn23)ccc1C(=O)NC1CC1", "note": "[Example 436, N-cyclopropyl-4-{6-[(6-fluoropyridin-3-yl)oxy]-8-[(3,3,3-trifluoropropyl)amino]imidazo[1,2-b]pyridazin-3-yl}-2-methylbenzamide]", "IC50": 0.1}
{"smiles": "Cc1cc(-c2cnc3c(NCC4CCSCC4)cc(Sc4cccc(O)c4)nn23)ccc1C(=O)NC1CC1", "note": "[Example 287, N-cyclopropyl-4-{6-[(3-hydroxyphenyl)sulfanyl]-8-[(tetrahydro-2H-thiopyran-4-ylmethyl)amino]imidazo[1,2-b]pyridazin-3-yl}-2-methylbenzamide]", "IC50": 0.3}
{"smiles": "Cc1cc(-c2cnc3c(NCCc4nnn[nH]4)cc(Oc4cccc(F)c4)nn23)ccc1C(=O)NC1CC1", "note": "[Example 511, N-cyclopropyl-4-[6-(3-fluoro-phenoxy)-8-{[2-(1H-tetrazol-5-yl)ethyl]amino}imidazo[1,2-b]pyridazin-3-yl]-2-methyl-benzamide]", "IC50": 0.3}
{"smiles": "CCNC(=O)c1ccc(-c2cnc3c(NCCC(F)(F)F)cc(Oc4ccc(OC)c(F)c4)nn23)cc1C", "note": "[Example 604, N-ethyl-4-{6-(3-fluoro-4-methoxyphenoxy)-8-[(3,3,3-trifluoropropyl)a-mino]imidazo[1,2-b]pyridazin-3-yl}-2-methylbenzamide]", "IC50": "< 1"}
{"smiles": "CCNC(=O)c1ccc(-c2cnc3c(NCC4CCOCC4)cc(Oc4ccc(OC)c(F)c4)nn23)cc1C", "note": "[Example 600, N-ethyl-4-{6-(3-fluoro-4-methoxyphenoxy)-8-[(tetrahydro-2H-pyran-4-ylmethyl)a-mino]imidazo[1,2-b]pyridazin-3-yl}-2-methylbenzamide]", "IC50": "< 1"}
{"smiles": "Cc1cc(F)cc(Nc2cc(NCCC(F)(F)F)c3ncc(-c4ccc(C(=O)NC5CC5)c(C)c4)n3n2)c1", "note": "[Example 371, N-cyclopropyl-4-{6-[(3-fluoro-5-methylphenyl)amino]-8-[(3,3,3-trifluoropropyl)amino]imidazo[1,2-b]pyridazin-3-yl}-2-methylbenzamide]", "IC50": 0.2}
{"smiles": "CNc1cc(Oc2cc(F)ccc2C)nn2c(-c3ccc(C(=O)NC4CC4)c(C)c3)cnc12", "note": "[Example 530, N-cyclopropyl-4-[6-(5-fluoro-2-methylphenoxy)-8-(methylamino)imidazo [1,2-b]pyridazin-3-yl]-2-methylbenzamide]", "IC50": 0.6}
